In US9096591B2, “Tetracyclic compounds” (Medivation Technologies, Inc., priority 2007, dated 2015):
Where two headings read alike, the source gives them in different places.

Legend:
[1] = biological target: T1, human recombinant serotonin (5-Hydroxytryptamine) 5-HT6 receptor (Homo sapiens, UniProt P50406); assay: Serotonin 5-HT6 radioligand binding ([3H]LSD); parameters: Inhibition of ligand binding, Ser. 5-HT6: concentration or dose not given beside the values; conditions: percent inhibition of specific binding
T1 construct: expressed in transfected cells; host or cells: human HeLa cells
T1 sequence (P50406 whole entry): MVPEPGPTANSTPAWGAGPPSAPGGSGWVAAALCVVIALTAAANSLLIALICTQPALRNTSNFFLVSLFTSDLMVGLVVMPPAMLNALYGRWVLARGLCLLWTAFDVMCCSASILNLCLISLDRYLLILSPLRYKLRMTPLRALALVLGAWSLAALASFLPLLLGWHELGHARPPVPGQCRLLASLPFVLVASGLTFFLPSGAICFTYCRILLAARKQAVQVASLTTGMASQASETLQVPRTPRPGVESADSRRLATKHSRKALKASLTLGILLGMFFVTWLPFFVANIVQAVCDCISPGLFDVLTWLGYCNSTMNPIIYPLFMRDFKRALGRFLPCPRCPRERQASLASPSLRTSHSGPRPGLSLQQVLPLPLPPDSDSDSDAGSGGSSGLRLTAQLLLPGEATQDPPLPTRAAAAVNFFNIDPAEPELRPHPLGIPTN
Description: Receptor proteins were filtered and washed, the filters were then counted to determine [3H]LSD specifically bound. […] Biochemical assay results are presented as the percent inhibition of specific binding in Table 6.

[2] = biological target: T2, human recombinant histamine H1 receptor (Homo sapiens, UniProt P35367); assay: Histamine H1 radioligand binding ([3H]Pyrilamine)
T2 construct: expressed in transfected cells; host or cells: CHO cells
T2 sequence (P35367 whole entry): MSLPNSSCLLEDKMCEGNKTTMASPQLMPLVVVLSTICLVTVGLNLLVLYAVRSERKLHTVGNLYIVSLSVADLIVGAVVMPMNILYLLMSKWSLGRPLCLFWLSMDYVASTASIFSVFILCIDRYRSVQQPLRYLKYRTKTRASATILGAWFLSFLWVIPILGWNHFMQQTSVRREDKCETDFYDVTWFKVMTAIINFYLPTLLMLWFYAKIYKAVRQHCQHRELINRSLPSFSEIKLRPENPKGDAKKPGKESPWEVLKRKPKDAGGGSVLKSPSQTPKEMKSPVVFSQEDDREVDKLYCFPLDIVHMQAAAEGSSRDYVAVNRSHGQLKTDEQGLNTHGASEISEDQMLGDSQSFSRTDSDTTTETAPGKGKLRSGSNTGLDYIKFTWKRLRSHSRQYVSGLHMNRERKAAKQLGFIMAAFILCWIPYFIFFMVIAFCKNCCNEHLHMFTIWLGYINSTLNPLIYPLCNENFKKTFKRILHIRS
Method in brief: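 Receptor expressed in CHO cells, assayed in 50 mM Tris-HCl pH 7.4 with 2 mM MgCl2, 100 mM NaCl, 250 mM sucrose. Compounds tested at 1 μM in 1% DMSO; non-specific binding set with 1 μM pyrilamine. Filter-bound radioactivity counted; values are percent inhibition of specific binding.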

[3] = biological target: T3, human recombinant adrenergic α1D receptor (Homo sapiens, UniProt P25100); assay: Adrenergic α1D radioligand binding ([3H]Prozosin); parameters: Inhibition of ligand binding, Adren. alpha1D: concentration or dose not given beside the values; conditions: percent inhibition of specific binding
T3 construct: expressed in transfected cells; host or cells: HEK-293 cells
T3 sequence (P25100 1-572): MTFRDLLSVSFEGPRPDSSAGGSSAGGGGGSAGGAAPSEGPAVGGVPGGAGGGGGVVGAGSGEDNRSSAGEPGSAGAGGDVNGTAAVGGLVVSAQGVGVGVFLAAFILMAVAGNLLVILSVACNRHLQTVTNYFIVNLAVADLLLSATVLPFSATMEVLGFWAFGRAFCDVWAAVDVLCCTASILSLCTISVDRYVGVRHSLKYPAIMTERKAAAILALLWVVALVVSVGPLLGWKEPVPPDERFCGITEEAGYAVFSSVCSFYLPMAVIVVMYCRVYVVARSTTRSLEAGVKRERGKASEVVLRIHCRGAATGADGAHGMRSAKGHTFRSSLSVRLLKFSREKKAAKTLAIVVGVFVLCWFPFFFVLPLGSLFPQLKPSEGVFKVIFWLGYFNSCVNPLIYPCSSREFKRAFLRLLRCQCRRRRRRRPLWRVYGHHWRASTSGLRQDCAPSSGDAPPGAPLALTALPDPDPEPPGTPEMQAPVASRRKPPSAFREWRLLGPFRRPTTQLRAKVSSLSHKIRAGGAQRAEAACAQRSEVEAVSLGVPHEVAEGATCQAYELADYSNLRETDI
Description: Compounds of invention were incubated with 0.6 nM [^3H]Prozosin for 60 minutes at 25° C. Non-specific binding was estimated in the presence of 10 μM phentolamine. Receptor proteins were filtered and washed, the filters were then counted to determine [^3H]Prozosin specifically bound. […] Biochemical assay results are presented as the percent inhibition of specific binding in Table 6.

[4] = biological target: T4, human recombinant adrenergic α2B receptor (Homo sapiens, UniProt P18089); assay: Adrenergic α2B radioligand binding ([3H]Rauwolscine); parameters: Inhibition of ligand binding, Adren. alpha2B: concentration or dose not given beside the values; conditions: percent inhibition of specific binding
T4 construct: expressed in transfected cells; host or cells: CHO-K1 cells
T4 sequence (P18089 1-450): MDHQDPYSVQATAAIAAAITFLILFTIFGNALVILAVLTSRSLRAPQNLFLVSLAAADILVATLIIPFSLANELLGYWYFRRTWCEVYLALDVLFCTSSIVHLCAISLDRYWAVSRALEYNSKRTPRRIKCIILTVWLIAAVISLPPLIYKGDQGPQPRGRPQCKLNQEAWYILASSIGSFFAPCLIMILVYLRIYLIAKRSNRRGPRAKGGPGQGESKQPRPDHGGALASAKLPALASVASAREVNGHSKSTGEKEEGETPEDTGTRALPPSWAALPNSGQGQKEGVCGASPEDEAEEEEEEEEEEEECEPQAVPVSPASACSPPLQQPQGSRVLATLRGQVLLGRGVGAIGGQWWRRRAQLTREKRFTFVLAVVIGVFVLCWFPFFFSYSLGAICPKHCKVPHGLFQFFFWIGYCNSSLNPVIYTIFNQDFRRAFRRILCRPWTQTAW
Method in brief: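 Membranes from CHO-K1 cells expressing the receptor, in 50 mM Tris-HCl pH 7.4 with 12.5 mM MgCl2, 1 mM EDTA, 0.2% BSA, incubated with compounds and 2.5 nM [3H]Rauwolscine for 60 minutes at 25 °C.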

[5] = biological target: T5, human recombinant serotonin (5-Hydroxytryptamine) 5-HT2A receptor (Homo sapiens, UniProt P28223); assay: Serotonin 5-HT2A radioligand binding ([3H]Ketanserin); conditions: percent inhibition of specific binding
T5 construct: expressed in transfected cells; host or cells: CHO-K1 cells
T5 sequence (P28223 whole entry): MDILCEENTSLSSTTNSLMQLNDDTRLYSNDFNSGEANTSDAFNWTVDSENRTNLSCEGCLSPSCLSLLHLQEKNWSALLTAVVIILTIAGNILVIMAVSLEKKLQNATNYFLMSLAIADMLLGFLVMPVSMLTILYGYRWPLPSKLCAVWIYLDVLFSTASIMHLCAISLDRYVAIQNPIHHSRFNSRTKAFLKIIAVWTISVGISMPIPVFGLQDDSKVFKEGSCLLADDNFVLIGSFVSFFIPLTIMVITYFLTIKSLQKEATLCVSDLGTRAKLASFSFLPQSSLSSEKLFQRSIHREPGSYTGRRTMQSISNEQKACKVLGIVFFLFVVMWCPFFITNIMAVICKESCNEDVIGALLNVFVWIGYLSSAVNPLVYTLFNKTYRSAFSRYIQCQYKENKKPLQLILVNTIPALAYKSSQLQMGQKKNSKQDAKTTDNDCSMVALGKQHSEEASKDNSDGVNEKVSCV
Description: Compounds of the invention were incubated with 0.5 nM [^3H]Ketanserin for 60 minutes at 25° C. Non-specific binding was estimated in the presence of 1 μM Mianserin. Receptor proteins were filtered and washed, the filters were then counted to determine [^3H]Ketanserin specifically bound. […] Biochemical assay results are presented as the percent inhibition of specific binding in Table 6.

[6] = percent inhibition of specific binding, screened at 1 μM, read-out: Inhibition of ligand binding, Hist. H1
[7] = read-out: Inhibition of ligand binding, Hist. H1

Structure (SMILES)	Inhibition of ligand binding, Ser. 5-HT6 [1] [%]	inhibition at 1 µM [2, 6] [%]	Inhibition of ligand binding, Adren. alpha1D [3] [%]	Inhibition of ligand binding, Adren. alpha2B [4] [%]	Inhibition of ligand binding, Ser. 5-HT2A [5] [%]	inhibition at 1 µM [2, 7] [%]	inhibition at 1 µM ([2]; read-out: Histamine Binding H1, percent inhibition of specific binding) [%]
Cc1ccc(C(O)Cn2c3c(c4cc(C)ccc42)CN(C)CC3)cc1 (racemic) [Compound 28, racemic-2-(1,2,3,4-tetrahydro-2,8-dimethylpyrido[4,3-b]indol-5-yl)-1-p-tolylethanol]	99	85	89				
Cc1ccc(CCn2c3c(c4cc(Cl)ccc42)CN(C)CC3)cc1 [Compound 43]	102	110	98	108	99		
CN1CCc2c(c3cc(Cl)ccc3n2CCc2ccc(Cl)cc2)C1 [Compound 45, 5-(4-chlorophenethyl)-8-chloro-2,3,4,5-tetrahydro-2-methyl-1H-pyrido[4,3-b]indole]	103	103	92	102	100		
Cc1ccc(CCn2c3c(c4cc(C(F)(F)F)ccc42)CN(C)CC3)cc1 [Compound 47]	99	81	81	101	92		
Cc1ccc2c(c1)c1c(n2CCc2ccc(C)nc2)CCN(C2CC2)C1 [Compound 51]	6	94	22	10	0		
Cc1ccc(CCn2c3c(c4cc(C(F)(F)F)ccc42)CN(C)CC3)cn1 [Compound 53]	18	43	13	34	−1		
CN1CCc2c(c3cc(C(F)(F)F)ccc3n2CCc2ccccc2)C1 [Compound 80, 8-(trifluoromethyl)-2,3,4,5-tetrahydro-2-methyl-5-phenethyl-1H-pyrido[4,3-b]indole]	101	89	75	105	88		
CN1CCc2c(c3c(Cl)cccc3n2CCc2ccccc2)C1 [Compound 81]	86	94	47	90	99		
CN1CCc2c(c3ccc(Cl)cc3n2CCc2ccccc2)C1 [Compound 82]	103	99	64	99	99		
CN1CCc2c(c3cccc(Cl)c3n2CCc2ccccc2)C1 [Compound 83]	106	97	92	96	100		
CN1CCc2c(c3cc(Cl)ccc3n2CCc2ccc(F)cc2)C1 [Compound 162, 5-(4-fluorophenethyl)-8-chloro-2,3,4,5-tetrahydro-2-methyl-1H-pyrido[4,3-b]indole]	99	100	90	112	98		
CN1CCc2c(c3cc(Cl)ccc3n2CCC2CCCCC2)C1 [Compound 164, 8-chloro-5-(2-cyclohexylethyl)-2,3,4,5-tetrahydro-2-methyl-1H-pyrido[4,3-b]indole]	99	101	32	93	91		
CN1CCc2c(c3cc(Cl)ccc3n2CCN2CCOCC2)C1 [Compound 186, 8-chloro-2,3,4,5-tetrahydro-2-methyl-5-(2-morpholinoethyl)-1H-pyrido[4,3-b]indole]	83	97	41	79	84		
CN1CCc2c(c3c(Cl)cccc3n2CCC2CCCCC2)C1 [Compound 187, 9-chloro-5-(2-cyclohexylethyl)-2,3,4,5-tetrahydro-2-methyl-1H-pyrido[4,3-b]indole]	53	64	15	57	84		
CN1CCc2c(c3ccc(Cl)cc3n2CCC2CCCCC2)C1 [Compound 188, 7-chloro-5-(2-cyclohexylethyl)-2,3,4,5-tetrahydro-2-methyl-1H-pyrido[4,3-b]indole]	67	97	8	65	58		
Cc1ccc2c(c1)c1c(n2CCc2ccc(C)nc2)CC(=O)N(C)C1 [Compound 195, 1,2-dihydro-2,8-dimethyl-5-(2-(6-methylpyridin-3-yl)ethyl)-4H-pyrido[4,3-b]indol-3(5H)-one]	8	3	15	7	−4		
Cc1ccc2c(c1)c1c(n2CCc2ccccc2)CC(O)N(C)C1=O (stereo not shown) [Compound 215, 3,4-dihydro-3-hydroxy-2,8-dimethyl-5-phenethyl-2H-pyrido[4,3-b]indol-1(5H)-one]	8		−5	−4	−6	-2	
Cc1ccc2c(c1)c1c(n2CCc2ccc(C)nc2)CCN(C)C1=O [Compound 216]	−8		−7	3	12	6	6
Cc1ccc2c(c1)c1c(n2CCN2CCCCC2)CCN(C)C1 [Compound 224, 2,3,4,5-tetrahydro-2,8-dimethyl-5-(2-(piperidin-1-yl)ethyl)-1H-pyrido[4,3-b]indole]	43	56	22	46	32		
